Molecular target: T1, IDO1 (Homo sapiens, UniProt P14902)
T1 construct: HeLa cells were treated with a test compound in the presence of IFNγ, which induces IDO1 expression; host or cells: H1-HeLa cells, IDO1 induced with IFNγ
Assay: Cell-based (HeLa) assay for measurement of IDO1 inhibition (kynurenine levels in supernatant)
Details: H1-HeLa cells, IDO1 induced with IFNγ, 48 hour incubation, kynurenine read by absorbance at 480 nm; geometric mean of a minimum of four determinations
Experimental: Example B-1. Cell-Based (HeLa) Assay for Measurement of IDO1 Inhibition
To measure IDO1 inhibition in tissue culture, HeLa cells were treated with a test compound in the presence of IFNγ, which induces IDO1 expression. Following incubation, cell supernatants were assayed for kynurenine levels, an indicator of IDO1 activity.
The following day, the test compounds were added in DMSO (0.5% final) at various concentrations, and IDO1 was inducibly expressed by the addition of 50 uL/well of 50 ng/mL of INFγ (Peprotech #300-02) in cell plating media. As a positive control, 50 uL of the cell plating media without IFNγ was added to several wells. Following a 48 hour incubation, the plates were spun down at 1,200 RPM for 5 min at 10° C. 65 μL/well of the supernatant was then transferred to new 384-well plates (Thermo #262160) that contained 10 uL/well of 30% TCA (Sigma # TO699), and the plates were sealed and incubated at 60° C. for 30 min. The plates were then centrifuged for 15 min at 2,000 RPM at 10° C. 40 μL/well of the supernatant was transferred to new 384-well plates (Thermo #262160) and was reacted with 40 μL/well of 2% (w/v) p-dimethlyaminobenzaldehyde (Sigma #156417) in glacial acetic acid (Sigma #A6283). The reaction was incubated at room temperature for 10 min and absorbance at 480 nm was read using a PerkinElmer Envision plate reader.
Data in Table 1 were normalized based on positive (−IFNγ) and negative (+IFNγ) controls and EC50 values were calculated from the fit of the dose—response curves to a four-parameter equation. All EC50 values represent geometric mean values of a minimum of four determinations. These assays generally produced results within 2-fold of the reported mean

T1 sequence (P14902 whole entry): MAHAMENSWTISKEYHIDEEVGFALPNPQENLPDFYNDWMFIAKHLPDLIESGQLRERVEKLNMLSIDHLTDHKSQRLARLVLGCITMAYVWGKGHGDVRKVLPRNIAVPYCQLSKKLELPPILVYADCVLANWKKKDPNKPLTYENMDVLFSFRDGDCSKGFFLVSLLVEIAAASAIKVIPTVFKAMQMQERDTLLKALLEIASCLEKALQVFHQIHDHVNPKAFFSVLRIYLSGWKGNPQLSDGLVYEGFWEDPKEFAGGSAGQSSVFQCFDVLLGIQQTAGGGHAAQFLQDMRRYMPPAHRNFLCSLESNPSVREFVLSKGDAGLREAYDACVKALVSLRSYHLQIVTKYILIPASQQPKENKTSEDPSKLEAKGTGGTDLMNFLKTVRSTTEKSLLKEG

SMILES | EC50 [nM]
Cc1ncc(-c2cccc3c2C(C)(C)C(=O)N3c2cnccn2)cc1C(=O)Nc1ccc(F)cc1 [Example 15, 5-(3,3-dimethyl-2-oxo-1-(pyrazin-2-yl)indolin-4-yl)-N-(4-fluorophenyl)-2-methylnicotinamide] | 522
Cc1ccc(-c2cccc3c2C(C)(C)C(=O)N3Cc2ncccn2)cc1C(=O)Nc1ccc(F)cc1 [Example 53, 5-(3,3-dimethyl-2-oxo-1-(pyrimidin-2-ylmethyl)indolin-4-yl)-N-(4-fluorophenyl)-2-methylbenzamide] | 1020
Cc1ccc(-c2cccc3c2[nH]c(=O)n3-c2cccc(F)c2F)cc1C(=O)Nc1ccc(F)cc1 [Example 22, 5-(1-(2,3-difluorophenyl)-2-oxo-2,3-dihydro-1H-benzo[d]imidazol-4-yl)-N-(4-fluorophenyl)-2-methylbenzamide] | 62
CC1(C)C(=O)N(c2cccnc2)c2nccc(-c3ccc(C(F)(F)F)c(C(=O)Nc4ccccc4)c3)c21 [Example 42, 5-(3,3-dimethyl-2-oxo-1-(pyridin-3-yl)-2,3-dihydro-1H-pyrrolo[2,3-b]pyridin-4-yl)-N-phenyl-2-(trifluoromethyl)benzamide] | 37
Cc1ccc(-c2cccc3c2C(C)(C)C(=O)N3c2ncccn2)nc1C(=O)Nc1ccc(F)cc1 [Example 41, 6-(3,3-dimethyl-2-oxo-1-(pyrimidin-2-yl)indolin-4-yl)-N-(4-fluorophenyl)-3-methylpicolinamide] | 424
CC1(C)C(=O)N(c2ncc[nH]2)c2cccc(-c3ccc(C(F)(F)F)c(C(=O)Nc4ccc(F)cc4)c3)c21 [Example 40, 5-(1-(1H-imidazol-2-yl)-3,3-dimethyl-2-oxoindolin-4-yl)-N-(4-fluorophenyl)-2-(trifluoromethyl)benzamide] | 31
CC1(C)C(=O)N(c2cccc(F)c2F)c2cccc(-c3ccc(C(F)(F)F)c(C(=O)Nc4ccc(F)cc4)c3)c21 [Example 38, 5-(1-(2,3-difluorophenyl)-3,3-dimethyl-2-oxoindolin-4-yl)-N-(4-fluorophenyl)-2-(trifluoromethyl)benzamide] | 55
CC1(C)C(=O)N(c2cccnc2)c2cccc(-c3cnc(C(F)(F)F)c(C(=O)Nc4ccc(F)cc4)c3)c21 [Example 36, 5-(3,3-dimethyl-2-oxo-1-(pyridin-3-yl)indolin-4-yl)-N-(4-fluorophenyl)-2-(trifluoromethyl)nicotinamide] | 26
CC1(C)C(=O)N(c2ccccn2)c2cccc(-c3ccc(C(F)(F)F)c(C(=O)Nc4ccc(F)cc4)c3)c21 [Example 2, 5-(3,3-dimethyl-2-oxo-1-(pyridin-2-yl)indolin-4-yl)-N-(4-fluorophenyl)-2-(trifluoromethyl)benzamide] | 11
CC1(C)C(=O)N(c2ncccn2)c2cccc(-c3ccc(C(F)(F)F)c(C(=O)Nc4cncnc4)c3)c21 [Example 47, 5-(3,3-dimethyl-2-oxo-1-(pyrimidin-2-yl)indolin-4-yl)-N-(pyrimidin-5-yl)-2-(trifluoromethyl)benzamide] | 810
CC1(C)C(=O)N(c2ccccn2)c2nccc(-c3ccc(C(F)(F)F)c(C(=O)Nc4ccc(F)cn4)c3)c21 [Example 28, 5-(3,3-dimethyl-2-oxo-1-(pyridin-2-yl)-2,3-dihydro-1H-pyrrolo[2,3-b]pyridin-4-yl)-N-(5-fluoropyridin-2-yl)-2-(trifluoromethyl)benzamide] | 36
CC1(C)C(=O)N(c2ncccn2)c2cccc(-c3ccc(C(F)(F)F)c(C(=O)Nc4ccc(F)c(Br)c4)c3)c21 [Example 31, N-(3-bromo-4-fluorophenyl)-5-(3,3-dimethyl-2-oxo-1-(pyrimidin-2-yl)indolin-4-yl)-2-(trifluoromethyl)benzamide] | 57
CC1(C)C(=O)N(c2cccnc2)c2cccc(-c3cnc(C(F)(F)F)c(C(=O)Nc4ccccc4)c3)c21 [Example 58, 5-(3,3-dimethyl-2-oxo-1-(pyridin-3-yl)indolin-4-yl)-N-phenyl-2-(trifluoromethyl)nicotinamide] | 53
CC1(C)C(=O)N(c2cn[nH]c2)c2cccc(-c3ccc(C(F)(F)F)c(C(=O)Nc4ccc(F)cc4)c3)c21 [Example 18, 5-(3,3-dimethyl-2-oxo-1-(1H-pyrazol-4-yl)indolin-4-yl)-N-(4-fluorophenyl)-2-(trifluoromethyl)benzamide] | 16
CC1(C)C(=O)N(c2ncccn2)c2cccc(-c3ccc(C(F)(F)F)c(C(=O)Nc4cccnc4)c3)c21 [Example 21, 5-(3,3-dimethyl-2-oxo-1-(pyrimidin-2-yl)indolin-4-yl)-N-(pyridin-3-yl)-2-(trifluoromethyl)benzamide] | 98
Cc1ncc(-c2cccc3c2C(C)(C)C(=O)N3c2ncccn2)cc1C(=O)Nc1ccc(F)cc1 [Example 14, 5-(3,3-dimethyl-2-oxo-1-(pyrimidin-2-yl)indolin-4-yl)-N-(4-fluorophenyl)-2-methylnicotinamide] | 105
Cc1ccc(-c2cccc3c2C(C)(C)C(=O)N3c2ccccn2)cc1C(=O)Nc1ccc(F)cc1 [Example 10, 5-(3,3-dimethyl-2-oxo-1-(pyridin-2-yl)indolin-4-yl)-N-(4-fluorophenyl)-2-methylbenzamide] | 34
CC1(C)C(=O)N(c2ncccn2)c2cccc(-c3cnc(C(F)(F)F)c(C(=O)Nc4ccc(F)cc4)c3)c21 [Example 35, 5-(3,3-dimethyl-2-oxo-1-(pyrimidin-2-yl)indolin-4-yl)-N-(4-fluorophenyl)-2-(trifluoromethyl)nicotinamide] | 17

Continued, values first:

EC50 [nM] | SMILES
103 | CC1(C)C(=O)N(c2ccccn2)c2nccc(-c3cnc(C(F)(F)F)c(C(=O)Nc4ccc(F)c(F)c4)c3)c21 [Example 43, N-(3,4-difluorophenyl)-5-(3,3-dimethyl-2-oxo-1-(pyridin-2-yl)-2,3-dihydro-1H-pyrrolo[2,3-b]pyridin-4-yl)-2-(trifluoromethyl)nicotinamide]
19 | CC1(C)C(=O)N(c2cccnc2)c2cccc(-c3ccc(C(F)(F)F)c(C(=O)Nc4ccc(F)cc4)c3)c21 [Example 7, 5-(3,3-dimethyl-2-oxo-1-(pyridin-3-yl)indolin-4-yl)-N-(4-fluorophenyl)-2-(trifluoromethyl)benzamide]
491 | CC1(C)Oc2c(-c3ccc(C(F)(F)F)c(C(=O)Nc4ccc(F)cc4)c3)cccc2N(c2ccccn2)C1=O [Example 52, 5-(2,2-dimethyl-3-oxo-4-(pyridin-2-yl)-3,4-dihydro-2H-benzo[b][1,4]oxazin-8-yl)-N-(4-fluorophenyl)-2-(trifluoromethyl)benzamide]
48 | CC1(C)C(=O)N(c2ncccn2)c2cccc(-c3ccc(OC(F)(F)F)c(C(=O)Nc4ccc(F)cc4)c3)c21 [Example 24, 5-(3,3-dimethyl-2-oxo-1-(pyrimidin-2-yl)indolin-4-yl)-N-(4-fluorophenyl)-2-(trifluoromethoxy)benzamide]
32 | Cc1ccc(-c2cccc3c2C(C)(C)C(=O)N3c2ncccn2)c(F)c1C(=O)Nc1ccc(F)cc1 [Example 45, 3-(3,3-dimethyl-2-oxo-1-(pyrimidin-2-yl)indolin-4-yl)-2-fluoro-N-(4-fluorophenyl)-6-methylbenzamide]
33 | Cc1ccc(-c2cccc3c2C(C)(C)C(=O)N3c2ncccn2)cc1C(=O)Nc1ccc(F)cc1 [Example 9, 5-(3,3-dimethyl-2-oxo-1-(pyrimidin-2-yl)indolin-4-yl)-N-(4-fluorophenyl)-2-methylbenzamide]
311 | Cn1cc(N2C(=O)C(C)(C)c3c(-c4ccc(C(F)(F)F)c(C(=O)Nc5ccc(F)cc5)c4)cccc32)cn1 [Example 23, 5-(3,3-dimethyl-1-(1-methyl-1H-pyrazol-4-yl)-2-oxoindolin-4-yl)-N-(4-fluorophenyl)-2-(trifluoromethyl)benzamide]
92 | O=C(Nc1ccc(F)cc1)c1cc(-c2cccc3c2C2(CCC2)C(=O)N3c2ncccn2)ccc1C(F)(F)F [Example 33, N-(4-fluorophenyl)-5-(2′-oxo-1′-(pyrimidin-2-yl)spiro[cyclobutane-1,3′-indolin]-4′-yl)-2-(trifluoromethyl)benzamide]
33 | CC1(C)C(=O)N(c2ccncn2)c2cccc(-c3cnc(C(F)(F)F)c(C(=O)Nc4ccc(F)cc4)c3)c21 [Example 49, 5-(3,3-dimethyl-2-oxo-1-(pyrimidin-4-yl)indolin-4-yl)-N-(4-fluorophenyl)-2-(trifluoromethyl)nicotinamide]
47 | Cc1ccc(-c2cccc3c2oc(=O)n3-c2cccc(F)c2F)cc1C(=O)Nc1ccc(F)cc1 [Example 39, 5-(3-(2,3-difluorophenyl)-2-oxo-2,3-dihydrobenzo[d]oxazol-7-yl)-N-(4-fluorophenyl)-2-methylbenzamide]
